From patent US9469650B2, “Melampomagnolide B derivatives” (BOARD OF TRUSTEES OF THE UNIVERSITY OF ARKANSAS, priority 2013, dated 2016)
Read-outs that look alike come from different tables or passages of the source.

Tests used:
[1] = tested on: KM12; assay: panel of 60 human tumor cell lines, growth inhibition (Colon Cancer)
[2] = tested on: A549/ATCC; assay: panel of 60 human tumor cell lines, growth inhibition (Non-Small Cell Lung Cancer); conditions: Homo sapiens, A549, read-out: LC50
[3] = tested on: SN12C; assay: panel of 60 human tumor cell lines, growth inhibition (Renal Cancer); conditions: Homo sapiens
[4] = tested on: HCT-116; assay: panel of 60 human tumor cell lines, growth inhibition (Colon Cancer); conditions: Homo sapiens
[5] = tested on: UACC-257; assay: panel of 60 human tumor cell lines, growth inhibition (Melanoma)
[6] = tested on: TK-10; assay: panel of 60 human tumor cell lines, growth inhibition (Renal Cancer); conditions: Homo sapiens
[7] = tested on: MDA-MB-468; assay: panel of 60 human tumor cell lines, growth inhibition (Breast Cancer); conditions: Homo sapiens
[8] = tested on: SNB-75; assay: panel of 60 human tumor cell lines, growth inhibition (CNS Cancer); conditions: Homo sapiens
[9] = tested on: HL-60(TB)
[10] = tested on: CCRF-CEM; assay: panel of 60 human tumor cell lines, growth inhibition (Leukemia); conditions: Homo sapiens
[11] = tested on: MDA-MB-231/ATCC; assay: panel of 60 human tumor cell lines, growth inhibition (Breast Cancer); conditions: Homo sapiens
[12] = tested on: UACC-62; assay: panel of 60 human tumor cell lines, growth inhibition (Melanoma); conditions: Homo sapiens
[13] = tested on: OVCAR-3; assay: panel of 60 human tumor cell lines, growth inhibition (Ovarian Cancer)
[14] = tested on: SK-MEL-28; assay: panel of 60 human tumor cell lines, growth inhibition (Melanoma); conditions: Homo sapiens
[15] = tested on: OVCAR-8; assay: panel of 60 human tumor cell lines, growth inhibition (Ovarian Cancer); conditions: Homo sapiens
[16] = tested on: SR; assay: panel of 60 human tumor cell lines, growth inhibition (Leukemia); conditions: Homo sapiens
[17] = tested on: SK-MEL-2; assay: panel of 60 human tumor cell lines, growth inhibition (Melanoma); conditions: Homo sapiens

C=C1C(=O)O[C@H]2[C@H]1CC/C(COC(=O)OCCCN1CCCCC1)=C\CC[C@@]1(C)O[C@@H]21 [JVM 2-26]
GI50 ([1]; Homo sapiens, KM12): 15.5 µM | CC50 ([1]; Homo sapiens, KM12, read-out: LC50): 63.3 µM | TGI ([1]; KM12): 3.13E−5 | Percent Growth ([1]; KM12, Log10 Concentration −4.0): −83% | Percent Growth ([1]; KM12, Log10 Concentration −5.0): 81% | Percent Growth ([1]; KM12, Log10 Concentration −6.0): 97% | Percent Growth ([1]; KM12, Log10 Concentration −7.0): 94% | Percent Growth ([1]; KM12, Log10 Concentration −8.0): 95% | CC50 [2]: 67.2 µM | GI50 [3]: 8.41 µM | CC50 ([3]; read-out: LC50): 55.2 µM | IC (TGI) ([3]; read-out: TGI): 22.7 µM | GI50 ([4]; HCT-116, HCT-116): 2.07 µM | CC50 ([4]; HCT-116, read-out: LC50): 23.9 µM | IC (TGI) ([4]; HCT-116, read-out: TGI): 6.42 µM | GI50 ([5]; Homo sapiens, UACC-257): 5.34 µM | CC50 ([5]; Homo sapiens, UACC-257, read-out: LC50): 45.6 µM | TGI ([5]; UACC-257): 1.87E−5 | Percent Growth ([5]; UACC-257, Log10 Concentration −4.0): −94% | Percent Growth ([5]; UACC-257, Log10 Concentration −5.0): 35% | Percent Growth ([5]; UACC-257, Log10 Concentration −6.0): 90% | Percent Growth ([5]; UACC-257, Log10 Concentration −7.0): 67% | Percent Growth ([5]; UACC-257, Log10 Concentration −8.0): 91% | GI50 ([6]; TK-10, TK-10): 2.03 µM | CC50 ([6]; TK-10, read-out: LC50): 25.5 µM | IC (TGI) ([6]; TK-10, read-out: TGI): 6.82 µM | GI50 ([7]; MDA-MB-468): 0.601 µM | CC50 ([7]; MDA-MB-468, read-out: LC50): 10.5 µM | IC (TGI) ([7]; MDA-MB-468, read-out: TGI): 2.78 µM | GI50 ([8]; SNB-75): 2.59 µM | CC50 ([8]; SNB-75, read-out: LC50): 40.6 µM | IC (TGI) ([8]; SNB-75, read-out: TGI): 16.5 µM | Percent Growth ([9]; Log10 Concentration −4.0): −50% | Percent Growth ([9]; Log10 Concentration −5.0): −10% | Percent Growth ([9]; Log10 Concentration −6.0): 73% | Percent Growth ([9]; Log10 Concentration −7.0): 64% | Percent Growth ([9]; Log10 Concentration −8.0): 93% | GI50 [10]: 1.78 µM | CC50 ([10]; read-out: LC50): 63.5 µM | IC (TGI) ([10]; read-out: TGI): 5.72 µM | GI50 ([11]; MDA-MB-231): 3.73 µM | CC50 ([11]; MDA-MB-231, read-out: LC50): 49.4 µM | IC (TGI) ([11]; MDA-MB-231, read-out: TGI): 16.2 µM | GI50 ([12]; UACC-62): 8.05 µM | CC50 ([12]; UACC-62, read-out: LC50): 47.1 µM | IC (TGI) ([12]; UACC-62, read-out: TGI): 11 µM | GI50 ([13]; Homo sapiens, OVCAR-3): 1.96 µM | CC50 ([13]; Homo sapiens, OVCAR-3, read-out: LC50): 22 µM | IC (TGI) ([13]; Homo sapiens, OVCAR-3, read-out: TGI): 5.88 µM | Percent Growth ([13]; OVCAR-3, Log10 Concentration −4.0): −100% | Percent Growth ([13]; OVCAR-3, Log10 Concentration −5.0): −24% | Percent Growth ([13]; OVCAR-3, Log10 Concentration −6.0): 80% | Percent Growth ([13]; OVCAR-3, Log10 Concentration −7.0): 96% | Percent Growth ([13]; OVCAR-3, Log10 Concentration −8.0): 98% | GI50 ([14]; SK-MEL-28): 3.83 µM | CC50 ([14]; SK-MEL-28, read-out: LC50): 41 µM | IC (TGI) ([14]; SK-MEL-28, read-out: TGI): 15.5 µM | GI50 ([15]; OVCAR-8): 10.3 µM | CC50 ([15]; OVCAR-8, read-out: LC50): 53.3 µM | IC (TGI) ([15]; OVCAR-8, read-out: TGI): 13.5 µM | GI50 [16]: 2.12 µM | CC50 ([16]; read-out: LC50): 83.9 µM | IC (TGI) ([16]; read-out: TGI): 10.2 µM | GI50 ([17]; SK-MEL-2): 11.2 µM | CC50 ([17]; SK-MEL-2, read-out: LC50): 55.8 µM | IC (TGI) ([17]; SK-MEL-2, read-out: TGI): 25.1 µM
